Reference: article PMC9921851, “Synthesis and Preclinical Evaluation of Three Novel ^68Ga-Labeled Bispecific PSMA/FAP-Targeting Tracers for Prostate Cancer Imaging” (Molecules, 2023)

Experiments:
recombinant human FAP = target: T1, recombinant human FAP (Homo sapiens, UniProt Q12884); test: In vitro FAP fluorescence enzyme-inhibition assay (Suc-Gly-Pro-AMC substrate); format: biochemical; conditions: n = 3
T1 construct: purchased Biolegend
T1 sequence (Q12884 1-760): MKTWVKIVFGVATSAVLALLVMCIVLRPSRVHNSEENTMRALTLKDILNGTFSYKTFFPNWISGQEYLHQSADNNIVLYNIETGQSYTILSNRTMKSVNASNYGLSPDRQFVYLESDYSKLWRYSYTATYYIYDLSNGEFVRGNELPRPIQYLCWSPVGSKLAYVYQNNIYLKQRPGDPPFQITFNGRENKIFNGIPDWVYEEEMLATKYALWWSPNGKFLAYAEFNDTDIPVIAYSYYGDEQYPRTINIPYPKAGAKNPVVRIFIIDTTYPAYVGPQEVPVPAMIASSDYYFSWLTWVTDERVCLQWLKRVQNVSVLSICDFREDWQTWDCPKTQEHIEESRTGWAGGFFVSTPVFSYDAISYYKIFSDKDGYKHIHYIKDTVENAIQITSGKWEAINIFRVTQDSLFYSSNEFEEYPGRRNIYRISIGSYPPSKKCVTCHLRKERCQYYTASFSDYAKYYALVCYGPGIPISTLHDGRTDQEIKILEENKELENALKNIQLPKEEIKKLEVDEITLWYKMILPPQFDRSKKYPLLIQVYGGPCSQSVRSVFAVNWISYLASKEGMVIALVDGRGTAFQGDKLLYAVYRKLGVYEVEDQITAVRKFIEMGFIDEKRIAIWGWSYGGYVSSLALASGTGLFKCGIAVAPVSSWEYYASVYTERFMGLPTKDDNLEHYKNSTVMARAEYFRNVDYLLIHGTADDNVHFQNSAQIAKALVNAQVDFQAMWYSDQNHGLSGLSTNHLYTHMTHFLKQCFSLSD
Description: The binding affinities of Ga-AV01017, Ga-AV01030, Ga-AV01038, Ga-HTK03041, and Ga-FAPI-04 to human FAP were measured by an enzyme-inhibition assay using Suc-Gly-Pro-AMC as the FAP substrate. The human FAP enzymatic activity on the substrate was inhibited by Ga-complexed standards in a dose-dependent manner (Figure 3B).
The half maximal inhibitory concentration (IC50) values of the tested compounds for FAP were measured by in vitro enzymatic assay. The recombinant human FAP (Biolegend; 0.2 µg/mL, 50 µL) was added into a costar 96-well plate. PBS and varied concentrations (0.2 pM to 2 µM) of tested nonradioactive Ga-complexed standards were added to each well (in duplicate) containing the recombinant human FAP. After being incubated for 30 min at 37 °C, 50 µL of Suc-Gly-Pro-AMC (2 µM, Bachem) was added to each well. The fluorescent signals were acquired at 15, 30, 45, and 60 min using a FlexStation 3 Multi-Mode Microplate Reader with excitation at 380 nm and emission at 460 nm. The IC50(FAP) was calculated using a “nonlinear fit model” built-in model in GraphPad Prism 7.02 software

[1] = tested on: PSMA-expressing LNCaP tumor xenografts; test: Ex vivo biodistribution in LNCaP tumor-bearing mice; conditions: 1 h post injection, range over LNCaP and HEK293T:hFAP tumor-bearing mice
Description: Biodistribution studies were conducted at 1 h post injection with ^68Ga-labeled AV01017, AV01030, AV01038, HTK03041, and FAPI-04 in LNCaP tumor-bearing mice (Figure 5 and Table S4, Supplementary Materials). The results were consistent with the observation from their PET images. Tumor uptake values for [^68Ga]Ga-AV01017, [^68Ga]Ga-AV01030, [^68Ga]Ga-AV01038, [^68Ga]Ga-HTK03041, and [^68Ga]Ga-FAPI-04 were 4.38 ± 0.55, 5.17 ± 0.51, 4.25 ± 0.86, 23.1 ± 6.11, and 3.15 ± 1.43 %ID/g, respectively. […] Although not statistically significant, the bispecific tracers with a longer linker tend to have a higher blood uptake value (9.24 ± 1.55 %ID/g for [^68Ga]Ga-AV01017; 7.07 ± 0.31%ID/g for [^68Ga]Ga-AV01038; 5.75 ± 0.59 %ID/g for [^68Ga]Ga-AV01030) and a lower tumor-to-blood ratio (0.48 ± 0.11 for [^68Ga]Ga-AV01017; 0.60 ± 0.13 for [^68Ga]Ga-AV01038; 0.89 ± 0.03 for [^68Ga]Ga-AV01030).
Imaging and biodistribution studies were performed using male NOD.Cg-Rag1tm1Mom Il2rgtm1Wjl/SzJ (NRG) mice following previously published procedures. The experiments were conducted according to the guidelines established by the Canadian Council on Animal Care and approved by Animal Ethics Committee of the University of British Columbia. The mice were briefly sedated by inhalation of 2.5% isoflurane in oxygen, and 100 µL LNCaP (2 × 10^5 cells) or HEK293T:hFAP (8.5 × 10^6 cells) cells were inoculated subcutaneously behind the left shoulder. When the tumor grew to 5–8 mm in diameter over 3–4 weeks and 4–5 weeks for HEK293T:hFAP and LNCaP tumors, respectively, the mice were used for PET/CT imaging and biodistribution studies.
For biodistribution studies, the mice were injected with the radiotracer (~2–4 MBq) as described above. At 1 h post injection, the mice were euthanized by CO2 inhalation. Blood was withdrawn by cardiac puncture, and organs/tissues of interest were collected, weighed, and counted using a Perkin Elmer (Waltham, MA, USA) Wizard2 2480 automatic gamma counter.

PSMA = target: T2, PSMA (Homo sapiens, UniProt Q04609); test: In vitro PSMA competition binding assay ([^18F]DCFPyL displacement on LNCaP cells); conditions: radioligand [^18F]DCFPyL, n = 3
T2 construct: endogenous in cells; host or cells: LNCaP cells (ATCC via Cedarlane)
T2 sequence (Q04609 whole entry): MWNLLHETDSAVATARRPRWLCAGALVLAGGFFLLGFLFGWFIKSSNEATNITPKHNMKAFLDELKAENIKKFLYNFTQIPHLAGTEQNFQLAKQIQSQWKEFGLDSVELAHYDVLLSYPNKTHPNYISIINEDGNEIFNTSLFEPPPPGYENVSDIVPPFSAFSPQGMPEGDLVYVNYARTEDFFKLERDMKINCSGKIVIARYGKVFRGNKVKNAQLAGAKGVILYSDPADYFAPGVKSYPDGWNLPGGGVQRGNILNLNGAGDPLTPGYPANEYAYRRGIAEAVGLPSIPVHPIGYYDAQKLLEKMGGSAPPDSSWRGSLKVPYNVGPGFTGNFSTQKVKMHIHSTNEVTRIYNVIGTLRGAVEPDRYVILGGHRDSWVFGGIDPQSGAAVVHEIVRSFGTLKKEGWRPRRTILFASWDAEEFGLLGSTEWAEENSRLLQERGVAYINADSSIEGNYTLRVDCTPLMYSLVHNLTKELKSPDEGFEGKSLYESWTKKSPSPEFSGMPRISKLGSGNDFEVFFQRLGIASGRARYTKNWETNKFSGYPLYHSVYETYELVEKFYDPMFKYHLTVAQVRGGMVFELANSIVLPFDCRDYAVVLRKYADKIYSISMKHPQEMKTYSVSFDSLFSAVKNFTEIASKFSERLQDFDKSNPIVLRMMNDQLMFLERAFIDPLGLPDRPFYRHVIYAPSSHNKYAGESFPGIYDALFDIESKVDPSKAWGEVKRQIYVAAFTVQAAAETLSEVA
Description: The binding affinities of Ga-AV01017, Ga-AV01030, Ga-AV01038, Ga-HTK03041, and Ga-FAPI-04 to PSMA were measured by a cell-based binding assay using PSMA-expressing LNCaP prostate cancer cells. The nonradioactive Ga-complexed standards, except Ga-FAPI-04, inhibited the binding of [^18F]DCFPyL to LNCaP cells in a dose-dependent manner (Figure 3A).
The PSMA binding assays were conducted following previously published procedures using LNCaP cells and [^18F]DCFPyL as the radioligand [34, 42, 43]. Data analyses of IC50 were performed using the nonlinear regression algorithm of GraphPad Prism 7 (San Diego, CA, USA) software.

| SMILES | IC50 (recombinant human FAP) [nM] | Blood uptake values (range over both tumor models) [1] | IC50 (PSMA) [nM] |
| --- | --- | --- | --- |
| N#C[C@@H]1CC(F)(F)CN1C(=O)CNC(=O)c1ccnc2ccc(-c3cn(CC(=O)N[C@@H](CCCCNC(=O)CN4CCN(CC(=O)[O-])CCN(CC(=O)[O-])CCN(CC(=O)[O-])CC4)C(=O)NCC(=O)NC[C@H]4CC[C@H](C(=O)N[C@@H](Cc5c6ccccc6cc6ccccc56)C(=O)NCCCC[C@H](NC(=O)N[C@@H](CCC(=O)O)C(=O)O)C(=O)O)CC4)nn3)cc12.[Ga+3] [Ga-AV01030] | 2.74 ± 0.33 | 5.68–5.75 %ID/g | 71.6 ± 23 |
| O=C([O-])CN1CCN(CC(=O)[O-])CCN(CC(=O)NC[C@H]2CC[C@H](C(=O)N[C@@H](Cc3c4ccccc4cc4ccccc34)C(=O)NCCCC[C@H](NC(=O)N[C@@H](CCC(=O)O)C(=O)O)C(=O)O)CC2)CCN(CC(=O)[O-])CC1.[Ga+3] [Ga-HTK03041, reference compound] | 2010 ± 585 | – | 0.76 ± 0.12 |
| N#C[C@@H]1CC(F)(F)CN1C(=O)CNC(=O)c1ccnc2ccc(OCCCc3cn(CC(=O)N[C@@H](CCCCNC(=O)CN4CCN(CC(=O)[O-])CCN(CC(=O)[O-])CCN(CC(=O)[O-])CC4)C(=O)NCC(=O)NC[C@H]4CC[C@H](C(=O)N[C@@H](Cc5c6ccccc6cc6ccccc56)C(=O)NCCCC[C@H](NC(=O)N[C@@H](CCC(=O)O)C(=O)O)C(=O)O)CC4)nn3)cc12.[Ga+3] [Ga-AV01017] | 1.25 ± 0.39 | 9.24–11.9 %ID/g | 25.2 ± 10.7 |
| N#C[C@@H]1CC(F)(F)CN1C(=O)CNC(=O)c1ccnc2ccc(OCc3cn(CC(=O)N[C@@H](CCCCNC(=O)CN4CCN(CC(=O)[O-])CCN(CC(=O)[O-])CCN(CC(=O)[O-])CC4)C(=O)NCC(=O)NC[C@H]4CC[C@H](C(=O)N[C@@H](Cc5c6ccccc6cc6ccccc56)C(=O)NCCCC[C@H](NC(=O)N[C@@H](CCC(=O)O)C(=O)O)C(=O)O)CC4)nn3)cc12.[Ga+3] [Ga-AV01038] | 2.31 ± 0.13 | 7.07–7.45 %ID/g | 29.4 ± 25.2 |
